Three molecules from PMC7143538, “New Thiodiketopiperazine and 3,4-Dihydroisocoumarin Derivatives from the Marine-Derived Fungus Aspergillus terreus” (Marine Drugs, 2020) can be followed below.

This assay addresses T1, protein tyrosine phosphatase 1 B (PTP1B) (Homo sapiens, UniProt P18031).
T1 construct: gene PTPN1
T1 sequence (P18031 1-435): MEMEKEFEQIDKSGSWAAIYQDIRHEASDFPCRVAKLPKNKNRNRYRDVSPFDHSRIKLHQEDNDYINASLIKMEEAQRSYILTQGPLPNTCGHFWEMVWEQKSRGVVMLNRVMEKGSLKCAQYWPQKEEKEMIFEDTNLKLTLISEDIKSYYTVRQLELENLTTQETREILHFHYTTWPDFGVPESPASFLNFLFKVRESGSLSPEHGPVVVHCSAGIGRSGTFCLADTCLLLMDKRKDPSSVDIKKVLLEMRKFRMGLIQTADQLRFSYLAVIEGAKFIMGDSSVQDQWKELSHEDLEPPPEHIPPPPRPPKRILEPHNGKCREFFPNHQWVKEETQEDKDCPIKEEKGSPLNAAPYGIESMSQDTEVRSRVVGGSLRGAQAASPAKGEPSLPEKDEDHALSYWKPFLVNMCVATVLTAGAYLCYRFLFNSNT
As to the kind of experiment: pNPP phosphatase assay, human recombinant PTP1B, absorbance at […] nm. It is filed as biochemical.

For `CS[C@@]1(Cc2ccccc2)NC(=O)[C@@](Cc2ccccc2O)(SC)NC1=O` [compound 3, emethacin C], the half-inhibitory concentration (IC50) (commonly the concentration that inhibits the measured activity by half) came to 12.3 µM.
In the case of `CS[C@@]12CC3=COC=C[C@H](OC(C)=O)[C@H]3N1C[C@]1(SC)CC3=COC=C[C@H](O)[C@H]3N1C2` [compound 7, alternarosin A] it was 24.3 µM.
Under `CS[C@@]12CC3=CC=C[C@H](OC(C)=O)[C@H]3N1C(=O)[C@]1(SC)CC3=COC=C[C@H](OC(C)=O)[C@H]3N1C2=O` [compound 5, bisdethiobis(methylsulfanyl)acetylapoaranotin] stands 25.7 µM.
